Test results reported in patent US7915423B2, “Solid states of pantoprazole sodium, processes for preparing them and processes for preparing known pantoprazole sodium hydrates” (Teva Pharmaceutical Industries, Ltd., priority 2002, dated 2011).

How the values were obtained:
[1] = Thermal interconversion of solid forms on drying, followed by PXRD; format: physicochemical
Method: The PXRD patterns depicted in the accompanying figures were obtained on a Scintag X-Ray powder diffractometer model X'TRA with a copper tube solid state detector. A round standard aluminum sample holder with round zero background quartz plate was used. Scanning parameters: Range: 2-40°2θ: continuous scan, Rate: 3 deg./min.
The mixture was stirred overnight at ambient temperature, giving the crystals. The crystals were filtered on filter paper.
Pantoprazole sodium Form V was dried at 65° C. under ambient pressure for two hours.
The solution was stirred overnight without precipitation. The solution was allowed to stand overnight in an opened flask with precipitation of the product. The crystals were filtered and allowed to stand at room temperature open to the air for a short period of time but were not otherwise dried.
The pantoprazole sodium Form VI was then dried at 50° C. under a 10 mm Hg vacuum overnight. The resulting powder was analyzed by PXRD and found to be amorphous.

[2] = as above; format: physicochemical; settings: 100° C. under 10 mm vacuum overnight
[3] = Solubility of pantoprazole sodium in alcohols; format: physicochemical
Excerpt: Accordingly, initial investigation focused on how this solvate could be produced by crystallization from a solution rather than a heterogeneous technique. We discovered that combining free pantoprazole and solid sodium hydroxide in 1-butanol and crystallization of the resulting pantoprazole sodium salt yielded Form V. The presence of minor amounts of water originating from the use of non-anhydrous 1-butanol, a hydrated starting material or water adsorbed on the equipment used for crystallization has no effect on the crystal form obtained. […] Again, conditions depleted of water, yet not rigorously anhydrous were investigated. We discovered that Form X can be obtained by crystallization from a solution formed by combining free pantoprazole with sodium hydroxide in 1-propanol.

[4] = cited from earlier work
[5] = 50° C. under 10 mm Hg vacuum overnight
[6] = 65° C. under ambient pressure for two hours

COc1ccnc(C[S+]([O-])c2nc3ccc(OC(F)F)cc3[nH]2)c1OC (stereo not shown) [Form XIV, pantoprazole sodium]
solid form obtained after drying (PXRD) [1, 5]: pantoprazole sodium Form XV

COc1ccnc(C[S+]([O-])c2nc3ccc(OC(F)F)cc3[nH]2)c1OC (stereo not shown) [Form XVIII, pantoprazole sodium]
solid form by PXRD as wet sample and after drying ([1]; drying at 50° C.): Form XVIII

COc1ccnc(C[S+]([O-])c2nc3ccc(OC(F)F)cc3[nH]2)c1OC (stereo not shown) [Pantoprazole sodium sesquihydrate, pantoprazole sodium]
solid form obtained after drying [2]: amorphous pantoprazole sodium

COc1ccnc(C[S+]([O-])c2nc3ccc(OC(F)F)cc3[nH]2)c1OC (stereo not shown) [Form XII, pantoprazole sodium]
solid form obtained after drying (PXRD) [1, 6]: pantoprazole sodium Form XIII
solid form obtained after drying (PXRD) ([1]; 65° C. under ambient pressure for two hours, listed as pantoprazole sodium 2-methylpropanol solvate): pantoprazole sodium Form XIII

COc1ccnc(C[S+]([O-])c2nc3ccc(OC(F)F)cc3[nH]2)c1OC (stereo not shown) [Form V, pantoprazole sodium]
solid form obtained after drying (PXRD) [1, 6]: pantoprazole sodium Form XIII
solid form obtained after drying (PXRD) ([1]; 65° C. under ambient pressure for two hours, listed as pantoprazole sodium 1-butanol solvate): pantoprazole sodium Form XIII

COc1ccnc(C[S+]([O-])c2nc3ccc(OC(F)F)cc3[nH]2)c1OC (stereo not shown) [Form VI, pantoprazole sodium]
solid form obtained after drying (PXRD) [1, 5]: amorphous

COc1ccnc(C[S+]([O-])c2nc3ccc(OC(F)F)cc3[nH]2)c1OC (stereo not shown) [Form XX, pantoprazole sodium]
dehydration on drying ([1]; mild conditions such as 50° C. at 10 mm Hg vacuum): without causing significant dehydration

COc1ccnc(C[S+]([O-])c2nc3ccc(OC(F)F)cc3[nH]2)c1OC (stereo not shown) [Form XIII, pantoprazole sodium]
solid form obtained after further drying ([1]; 65° C. for another two hours under ambient pressure (Form XIII obtained from Form V)): partially amorphous
solid form obtained after drying (PXRD) [1, 6]: amorphous pantoprazole sodium

COc1ccnc(C[S+]([O-])c2nc3ccc(OC(F)F)cc3[nH]2)c1OC (stereo not shown) [Pantoprazole sodium, pantoprazole sodium]
solubility in 1-butanol ([3]; 1-butanol): appreciably soluble
solubility in 1-propanol ([3]; 1-propanol): high solubility

COc1ccnc(C[S+]([O-])c2nc3ccc(OC(F)F)cc3[nH]2)c1OC (stereo not shown) [Form IV, pantoprazole sodium]
solid form obtained after drying (PXRD) [1, 5]: pantoprazole sodium Form I

COc1ccnc(C[S+]([O-])c2nc3ccc(OC(F)F)cc3[nH]2)c1OC (stereo not shown) [monohydrate, pantoprazole sodium]
solubility in acetone [4]: dissolves with difficulty

COc1ccnc(C[S+]([O-])c2nc3ccc(OC(F)F)cc3[nH]2)c1OC (stereo not shown) [Form VIII, pantoprazole sodium]
solid form obtained after drying ([1]; 50° C. under 10 mm Hg vacuum, time not given): pantoprazole sodium Form I
